Assay results published in US10104882B2, “Methods and compositions for preventing and treating electrophile-mediated toxicities” (priority 2013, dated 2018).
Where two headings read alike, the source gives them in different places.

Columns and labels:
MN9D cells [1] = details: cited from earlier work; for protection from acrolein-induced cell loss: pre-incubation
[2] = Ionization parameters (pKa, % anion); format: physicochemical; details: for relative enolate concentration in solution: pH 7 / neutral conditions
[3] = cited from earlier work; for thiol protection against acrolein-induced thiol loss: pH 9.0; for effect on rate of acrolein-induced sulfhydryl (thiol) loss: physiological conditions (pH 7.4)
[4] = system: Rat striatal synaptosomes; details: acrolein 1-1000 μM with cytoprotectant 500 μM; cited from earlier work
[5] = Electrophile concentration-dependent loss of GSH sulfhydryl groups (in chemico); format: biochemical; set-up: Log IC50: unit not given here; details: for Log IC50: logarithmic value, electrophile concentration that causes 50% loss of the GSH sulfhydryl group
Text: (§1) However, acrolein and other electrophiles used in this research are α,β-unsaturated carbonyls, whereas NAPQI and pBQ are quinone derivatives. […] Although both compounds are relatively acidic (low pKa values), thiol protection is limited since the corresponding adduct reactions involving the enolates of these acids are likely to be reversible. […] 2-ACP was the most protective 1,3-dicarbonyl compound tested in this and other studies^54 and was, therefore, the focus of subsequent research. […] 2-ACP (50 μM) was also effective at protecting thiol loss induced by pBQ, the degradation product of NAPQI (data not shown). […] These electrophiles target nucleophilic sulfhydryl groups that play critical roles in protein function and cellular redox balance.

[6] = Prevention of NAPQI-induced GSH sulfhydryl loss by 1,3-dicarbonyl compounds (in chemico); format: biochemical; details: equimolar concentrations (50 μM), pH 7.4
Text: FIG. 3. […] Numbers in parentheses are respective IC50 values.
FIG. 4. […] Numbers in parentheses are respective IC50 values.
as §1

MN9D cells [7] = details: cited from earlier work
[8] = in chemico; cited from earlier work
male C57 BL mice = experiment: Mouse model of oral acetaminophen (APAP) overdose hepatotoxicity/lethality; format: in vivo
Description: FIG. 7A-7B. […] Hepatoprotectants were administered 20 mins before (−20), 20 mins after (+20) or 60 mins after (+60) APAP intoxication.
A separate group received the PEG400 vehicle 20 mins prior to AAP. […] Vehicle control mice (n=10) received sequential injections of PEG400 (i.p. followed by oral). At several times post-AAP administration (2, 6, 24, 48 and 168 hrs), groups of mice were anesthetized in a carbon dioxide chamber and heparinized blood samples were collected. Samples were centrifuged and resulting serum was retained for analyses (see below). Livers were also excised, weighed and tissue samples were collected for histopathological evaluation. Remaining tissue was snap frozen in liquid nitrogen. Hepatotoxicity was determined by quantification of serum alanine aminotransferase (ALT) and aspartate aminotransferase (AST) using colorimetric assays. Serum lactate dehydrogenase (LDH) was also measured as an index of generalized AAP-induced organ toxicity. To evaluate the extent of cellular oxidative stress in liver homogenates, the unsaturated aldehyde by-products of lipid peroxidation, HNE and malondialdhyde (MDA), were determined according to a modification of the Gerard-Monnier et al. method^27. In addition, soluble thiol contents were measured in homogenates according to LoPachin et al.^44.

rat liver = experiment: Acute ischemia-reperfusion injury of rat liver; format: in vivo, rats
Description: FIG. 9. Effect of 2-ACP on liver ischemia. 2-ACP (2.40 mmol/kg) or vehicle was injected i.p. 10 mins before clamping the portal vasculature for 45 mins. At the completion of the Ischemic phase, clamps were removed and the liver was reperfused for 180 mins. Following reperfusion, blood samples were removed for analysis of liver enzymes (ALT, AST) and LDH in plasma. Joining lines indicate statistically significant differences in treatment groups at ***P<0.001 level of significance.
FIG. 10. Effect of 2-ACP on liver reperfusion. 2-ACP (2.40 mmol/kg) or vehicle was injected i.p. 10 mins before restoration of hepatic circulation (reperfusion phase). At the completion of reperfusion, blood samples were removed for analysis of liver enzymes (ALT, AST) and LDH (a general enzyme indicator of tissue injury) in plasma. Joining lines indicate statistically significant differences in treatment groups at ***P<0.001 level of significance.
FIG. 11. […] At the completion of reperfusion, blood samples were removed for analysis of liver enzymes (ALT, AST) and LDH (a general enzyme indicator of tissue injury) in plasma. Joining lines indicate statistically significant differences in treatment groups at ***P<0.001 level of significance.
IR injury is the pathophysiological basis for stroke, myocardial infarction and other organ failure. It is also an underlying cause of allograft rejection following tissue transplantation. To investigate the possibility that 2-ACP and other nucleophilic dicarbonyl derivatives might be useful in preventing IR-mediated organ damage, rats were anesthetized and I/R was induced by clamping the portal vein and hepatic artery using commercially available microclips placed at the porta hepatis. The ischemic state was maintained for 45 mins, which affected approximately 70% of the liver mass. Following removal of the microclamps, hepatic reperfusion was maintained for 180 min. Animals were then sacrificed and plasma samples were taken for subsequent analysis of lactate dehydrogenase (LDH; a general enzyme indicator of cell injury) and liver enzymes (AST and ALT). […] A sham group (laparotomy only) provided baseline data for the appearance of liver enzyme in plasma. […] This level of hepatocyte leakage indicates substantial irreversible cell injury. […] Thus, prior 2-ACP administration is able to diminish the pathophysiological disposition of the ischemic phase. Further, amelioration of the ischemic phase truncates subsequent culmination of hepatocyte injury during reperfusion. To determine whether hepatoprotection was phase-specific and dose-dependent, 2-ACP (1.20-2.40 mmol/kg) was injected i.p. 10 mins prior to the restoration of hepatic circulation (reperfusion phase).

Compound	protection from acrolein-induced cell loss (MN9D cells [1])	effect on rate of acrolein-induced sulfhydryl (thiol) loss [3]	change in acrolein IC50 for synaptosomal DA transport inhibition [4]	Log IC50 [5]	prevention of NAPQI-induced thiol loss [6]	further results
CCOC(=O)CC(=O)OCC [DEM, diethyl malonate]	neither DEM nor HD was effective	Neither diethyl malonate (DEM; a β-diester) nor 2,5-hexanedione (HD), a γ or 1,4-diketone, affected the rate of sulfhydryl loss	neither DEM nor HD significantly affected the acrolein IC50	–	–	relative enolate concentration in solution [2]: < 0.1%; thiol protection against acrolein-induced thiol loss [3]: significantly increased
C=CC=O [Acrolein, acrolein]	–	–	–	1.72	–	CC50 (MN9D cells [1]; read-out: LC50 (acrolein concentration producing 50% cell lethality), acrolein 50-150 μM): 96 µM
N[C@@H](CCC(=O)N[C@@H](CS)C(=O)NCC(=O)O)C(=O)O [GSH, glutathione]	–	–	–	–	–	pKa ([2]; Table 1, read-out: pKa): 8.6; % Anion (pH = 7.4) [2]: 5.9%
CC(=O)CC(C)=O [AcAc, acetylacetone]	moderately protective	substantially slowed	–	–	minimal thiol protection	pKa [2]: 9.0; thiol protection against acrolein-induced thiol loss [3]: virtually complete
O=C1CCC(=O)C1 [CPD, 1,3-cyclopenanedione]	–	–	relatively ineffective	–	minimal thiol protection	protection against H2O2-induced cell death (MN9D cells [7]): ineffective
COc1cc(/C=C/C(=O)CC(=O)/C=C/c2ccc(O)c(OC)c2)ccc1O [Curcumin, curcumin]	–	–	–	–	–	pKa ([2]; Table 1, read-out: pKa): 7.8; % Anion (pH = 7.4) [2]: 28.5%
CC(=O)CC(=O)C(F)(F)F [TFPD, 1,1,1-trifluoro-2,4-pentanedione]	moderately protective	some thiol protection	relatively ineffective	–	–	fold protection against H2O2-induced cytotoxicity (MN9D cells [7]): 3 fold; relative enolate concentration in solution [2]: 99%; pKa ([2]; read-out: pKa): 4.7; thiol protection against acrolein-induced thiol loss [3]: did not increase
CC(=O)N=C1C=CC(=O)C=C1 [NAPQI, N-acetyl-p-benzoquinone imine]	–	–	–	0.92	–	IC50 ([5]; read-out: IC50 for NAPQI-induced GSH loss, NAPQI alone, NAPQI 2-128 μM, no protectant): 9.1 µM; second order rate constant for reaction with cysteine sulfhydryl groups [8]: 32000 M⁻¹ s⁻¹
CC(=O)Nc1ccc(O)cc1 [APAP, N-acetyl-p-aminophenol]	–	–	–	–	–	lethality of oral APAP overdose (male C57 BL mice; oral 500 mg/kg, mice, within 72 hrs): ~90%
CC1(C)OC(=O)CC(=O)O1 [MA, Meldrum's acid]	–	substantially slowed	more modest	–	ineffective	–
CC(=O)N[C@@H](CS)C(=O)O [NAC, N-acetylcysteine]	completely prevented	–	more modest	–	only minimal protection	protection against H2O2-induced cell death (MN9D cells [7]): significantly less efficacious; pKa ([2]; Table 1, read-out: pKa): 9.5; % Anion (pH = 7.4) [2]: 0.8%; pKa ([2]; read-out: pKa): 9.6; plasma liver enzymes (ALT, AST) and LDH after I/R (rat liver; i.p. 2.40 mmol/kg 10 mins before ischemia (45 min), reperfusion 180 min): did not prevent I/R liver injury; plasma liver enzymes (ALT, AST) and LDH after I/R (rat liver; i.p. 10 mins before reperfusion, 2-ACP 1.20-2.40 mmol/kg, equimolar NAC): did not prevent I/R liver injury; changes in hepatic parameters, compound alone (male C57 BL mice; compound alone, no APAP): neither NAC nor ACP alone caused significant changes
CCN1C(=O)C=CC1=O [NEM, N-ethylmaleimide]	–	–	–	1.23	–	–
CC(C)(C)C1=CC(=O)C=CC1=O [tBQ, tert-butylquinone]	–	–	–	1.24	–	–
O=C1C=CC(=O)C=C1 [pBQ, p-benzoquinone]	–	–	–	1.06	–	–
CC(=O)CCC(C)=O [HD, 2,5-hexanedione]	neither DEM nor HD was effective	Neither diethyl malonate (DEM; a β-diester) nor 2,5-hexanedione (HD), a γ or 1,4-diketone, affected the rate of sulfhydryl loss	neither DEM nor HD significantly affected the acrolein IC50	–	–	protection against H2O2-induced cell death (MN9D cells [7]): ineffective
CC1(C)CC(=O)CC(=O)C1 [DMD, dimedone]	–	substantially slowed	more modest	–	ineffective	pKa [2]: 5.3; fraction present as nucleophilic enolate/thiolate anion ([2]; physiological pH (7.4)): 99%
